# Test results from article PMC7590512, “Lysosomal cathepsin creates chimeric epitopes for diabetogenic CD4 T cells via transpeptidation” (The Journal of Experimental Medicine, 2020).
# How the values were obtained:
# BDC-10.1 T cell = settings: for stimulation of BDC-10.1 (IL-2): M12.C3.g7 APCs, peptides at the concentrations used in the digests, average of three experiments
# From the text: (§1) For APCs, we used the IA^g7-expressing M12.C3 B cell lymphoma (M12.C3.g7; [Carrasco-Marin et al., 1996]). Four T cell hybridomas were used in various stimulation assays. BDC-2.5 and BDC-10.1 were provided by Dr. Kathryn Haskins (University of Colorado Medical School, Aurora, CO). G7W120 was produced in this laboratory ([Jin et al., 2015]). The insulin B:9-23 reactive AS91 T cell hybridoma ([Levisetti et al., 2007]) was provided by Dr. Emil Unanue (Washington University, St. Louis, MO). T cell hybridomas (10^5 cells) were mixed with either 10^5 paraformaldehyde-fixed APCs or 10^5 unfixed APCs and cultured overnight with various concentrations of synthetic peptide or volumes of a pH-adjusted cathepsin digestion mixture in a final volume of 250 µl. Secreted IL-2 was assayed with a functional assay where the growth and survival of an HT-2 IL-2–dependent cell line was quantified using the dye MTT ([White et al., 2000]) and reported as units per milliliter based on comparison to an IL-2 standard.
# Cat-L [1] = settings: estimated by comparison with control peptide LQTLALWSRMDQL; C-peptide plus WE14 with Cat-L
# From the text: as §1
# livCat-L and recCat-L = settings: MS/MS
# Cat-L [2] = test system: Cat-L
# [3] = test system: BDC-2.5, BDC-10.1, and G7W-120 T cells
# ChgA-specific T cells = settings: words; ref Stadinski et al., 2010a; cited from earlier work
substance,measurement,setting,value
C-peptide,stimulation of BDC-10.1 (IL-2),BDC-10.1 T cell,neither C-peptide nor WE14 alone had any activity
same,C-peptide converted to a stimulatory peptide,Cat-L [1],2.5–5%
same,cleavage of mouse C-peptide,livCat-L and recCat-L,The cleavage after TLAL was found in both digests
LQTLALWSRMDQL,stimulation of BDC-10.1 (IL-2),BDC-10.1 T cell,highly stimulatory
RKLLW-NH2,inhibition of BDC-10.1 response to 0.17 µM LQTLALWSRMDQL by carried-over inhibitor,BDC-10.1 T cell; control for nonspecific inhibition of the stimulation assay,not inhibitory
same,"inhibition of generation of the active peptide, words",Cat-L [2]; increasing inhibitor concentrations (44-350 µM),inhibited by RKLLW-NH2 in a dose-dependent manner
same,inhibition of generation of the active peptide by Cat-L,"Cat-L [2]; inhibitor at same concentration as C-peptide substrate, livCat-L or recCat-L, preincubated 30 min on ice",~50%
WSRMDQLAKELTAE [WE14],stimulation of BDC-10.1 (IL-2),BDC-10.1 T cell,neither C-peptide nor WE14 alone had any activity
same,stimulation of three T cells (IL-2),[3],inactive at the concentrations tested here
same,agonism for BDC-2.5 and other ChgA-specific T cells,ChgA-specific T cells,weak agonist
